Reference: patent publication US20220362396A1, “AMINO-PYRAZINECARBOXAMIDE COMPOUNDS, CONJUGATES, AND USES THEREOF” (Silverback Therapeutics, Inc., priority 2018, published 2022)

Key:
[1] = target: T1, TGFBR2 (Homo sapiens, UniProt P37173); test: TGFBR2 RBC assay (enzyme inhibition assay, Reaction Biology Corp.); assay type: biochemical
T1 construct: purchased Reaction Biology Corp
Description: Compounds of the disclosure were also assayed by Reaction Biology Corp. using the TGFBR2 RBC assay (enzyme inhibition assay). […] NT refers to not tested.

[2] = tested on: TGFβ/SMAD Signaling Pathway SBE reporter cell line; test: TGFβ reporter assay, in vitro small molecule screening (luciferase); assay type: cell-based; details: TGFβ stimulation, luminescence
Description: TGFβ/SMAD Signaling Pathway SBE reporter cell line was obtained from BPS Bioscience. Cells were passed, expanded, and stored in liquid nitrogen as per the supplier's instructions with the exception that growth media is changed to DMEM-C with Geneticin (DMEM supplemented with 10% fetal bovine serum, 1×NEAA, 1 mM Pyruvate, 2 mM glutamine, 50 μg/mL penicillin, 50 U/mL streptomycin and 400 μg/mL of Geneticin). The assay media was MEM supplemented with 0.5% fetal bovine serum, 1×NEAA, 1 mM Pyruvate, 50 μg/mL penicillin and 50 U/mL streptomycin.
Test samples (at desired concentrations diluted in assay media) were added to a 96-well assay plate, 20 μL per well. Reporter cells were harvested from the tissue culture flasks by incubation in small quantity of PBS at 37° C. for two minutes after the media in the flask is removed and cells rinsed with PBS. Cells were counted and diluted in the assay media at approximately 0.5×10^6 cells/mL and then 80 μL/well of cells were added to the assay plate containing the 20 μL/well of test samples (or media only), and incubated for approximately 5-6 hours at 37° C. in a 5% CO2 humidified incubator. After that time, 15 μL of TGFβ diluted to 12 ng/mL in the assay media was added to the plate. Controls included TGFβ titration (from 50 to 0 ng/mL) without inhibitors, and media only (without cells, inhibitor or TGFβ). Plates were incubated at 37° C. in a 5% CO2 humidified incubator for 18 h. Luciferase substrate solution is subsequently added at 100 μL per well, incubated in the dark at room temperature for 15 min, and luminescence is measured using a luminometer. EC50 values and curve fits were obtained using Prism (GraphPad Software).

T1 sequence (P37173 23-567): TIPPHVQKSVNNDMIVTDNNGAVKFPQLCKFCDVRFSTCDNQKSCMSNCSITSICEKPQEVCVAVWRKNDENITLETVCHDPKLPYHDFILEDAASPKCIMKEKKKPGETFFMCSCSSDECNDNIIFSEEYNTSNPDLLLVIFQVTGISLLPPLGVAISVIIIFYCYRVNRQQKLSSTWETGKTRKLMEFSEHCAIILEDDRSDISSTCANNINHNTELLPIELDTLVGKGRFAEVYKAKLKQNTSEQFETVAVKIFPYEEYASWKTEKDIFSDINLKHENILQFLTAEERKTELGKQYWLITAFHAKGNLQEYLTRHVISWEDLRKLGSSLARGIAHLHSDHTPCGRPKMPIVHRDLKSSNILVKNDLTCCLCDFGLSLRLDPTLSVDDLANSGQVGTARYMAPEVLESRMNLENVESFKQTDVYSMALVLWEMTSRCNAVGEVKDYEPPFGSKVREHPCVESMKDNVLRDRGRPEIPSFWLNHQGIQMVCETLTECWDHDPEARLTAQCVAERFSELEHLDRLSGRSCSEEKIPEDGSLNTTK

Row | Compound | IC50 [1] [nM] | EC50 [2] [nM]
1 | Nc1ncc(-c2ccc(CCNC(=O)OCc3ccccc3)cc2)nc1C(=O)Nc1cnccc1-c1ccc2c(c1)OCO2 [Compound 26] | < 50 | 100 to 1000
2 | [N-]=[N+]=NCC1COCCN1c1ccncc1NC(=O)c1nc(-c2ccc(CCNC(=O)OCc3ccccc3)cc2)cnc1N (stereo not drawn) [Compound 27] | > 1000 | > 1000
3 | Nc1ncc(-c2ccc(CCNC(=O)OCc3ccccc3)cc2)nc1C(=O)Nc1cnccc1N1CCC(F)(F)CC1 [Compound 29] | > 1000 | 100 to 1000
4 | Cc1cnccc1-c1ccncc1NC(=O)c1nc(-c2ccc(CCNC(=O)OCc3ccccc3)cc2)cnc1N [Compound 32] | 100 to 1000 | 50 to 100
5 | COc1cnccc1-c1ccncc1NC(=O)c1nc(-c2ccc(CCNC(=O)OCc3ccccc3)cc2)cnc1N [Compound 33] | > 1000 | 100 to 1000
6 | Nc1ncc(-c2ccc(CCNC(=O)OCc3ccccc3)cc2)nc1C(=O)Nc1cnccc1N1CCCOC1=O [Compound 38] | 100 to 1000 | 100 to 1000
7 | Nc1ncc(-c2ccc(CCNC(=O)OCc3ccccc3)cc2)nc1C(=O)Nc1cnccc1-c1cc[nH]c(=O)c1 [Compound 39] | 100 to 1000 | > 1000
8 | COC1CCN(c2ccncc2NC(=O)c2nc(-c3ccc(CCNC(=O)OCc4ccccc4)cc3)cnc2N)CC1 [Compound 42] | 50 to 100 | 100 to 1000
9 | Nc1ccc(-c2ccncc2NC(=O)c2nc(-c3ccc(CCNC(=O)OCc4ccccc4)cc3)cnc2N)cn1 [Compound 43] | < 50 | 100 to 1000
10 | CNCCc1ccc(-c2cnc(N)c(C(=O)Nc3cnccc3N3CCOCC3)n2)cc1 [Compound 44] | 100 to 1000 | 100 to 1000
11 | Nc1ncc(-c2ccc(CCNC(=O)OCc3ccccc3)c(F)c2)nc1C(=O)Nc1cnccc1N1CCOCC1 [Compound 46] | < 50 | 100 to 1000
12 | Nc1ncc(-c2ccc(CCNC(=O)OCc3ccccc3)cc2)nc1C(=O)Nc1cnccc1N1CCOCCC1=O [Compound 47] | > 1000 | > 1000
13 | Nc1ncc(-c2ccc(CCNC(=O)OCc3ccccc3)cc2F)nc1C(=O)Nc1cnccc1N1CCOCC1 [Compound 50] | < 50 | 100 to 1000
14 | COc1cc(CCN)ccc1-c1cnc(N)c(C(=O)Nc2cnccc2N2CCOCC2)n1 [Compound 56] | 50 to 100 | 50 to 100
15 | NCCc1cc(F)c(-c2cnc(N)c(C(=O)Nc3cnccc3N3CCOCC3)n2)c(F)c1 [Compound 57] | 100 to 1000 | 100 to 1000
16 | Nc1ncc(-c2ccc(S(=O)(=O)N3CCN(C(=O)OCc4ccccc4)CC3)cc2)nc1C(=O)Nc1cnccc1N1CCOCC1 [Compound 63] | 100 to 1000 | 50 to 100
17 | CC(C)(C)OC(=O)N1CCc2ccc(-c3cnc(N)c(C(=O)Nc4cnccc4N4CCOCC4)n3)cc2C1 [Compound 68] | < 50 | 100 to 1000
18 | NCCCCc1ccc(-c2cnc(N)c(C(=O)Nc3cnccc3N3CCOCC3)n2)cc1 [Compound 73] | < 50 | 50 to 100
19 | Nc1ncc(-c2ccc(CCCCNC(=O)OCc3ccccc3)cc2)nc1C(=O)Nc1cnccc1N1CCOCC1 [Compound 74] | 50 to 100 | 100 to 1000
20 | NCCNC(=O)c1ccc(-c2cnc(N)c(C(=O)Nc3cnccc3N3CCOCC3)n2)cc1 [Compound 75] | < 50 | 100 to 1000
21 | Nc1ncc(-c2ccc3c(c2)CCNC3)nc1C(=O)Nc1cnccc1N1CCOCC1 [Compound 77] | 50 to 100 | 50 to 100
22 | Nc1ncc(-c2ccc(CCCNC(=O)OCc3ccccc3)cc2)cc1C(=O)Nc1cnccc1N1CCOCC1 [Compound 79] | > 1000 | 100 to 1000
23 | NCCNC(=O)Cc1ccc(-c2cnc(N)c(C(=O)Nc3cnccc3N3CCOCC3)n2)cc1 [Compound 80] | 50 to 100 | 100 to 1000
24 | CC(C)(C)OC(=O)N1CCN(C(=O)c2ccc(-c3cnc(N)c(C(=O)Nc4cnccc4N4CCOCC4)n3)cc2)CC1 [Compound 81] | 100 to 1000 | 50 to 100

More lines, now with the values ahead:

Row | IC50 [1] [nM] | EC50 [2] [nM] | Compound
25 | < 50 | 100 to 1000 | Nc1ncc(-c2ccc(CCNC(=O)OCc3ccccc3)cc2)nc1C(=O)Nc1cnccc1-c1ccccn1 [Compound 25]
26 | 100 to 1000 | 100 to 1000 | C[C@H]1CN(c2ccncc2NC(=O)c2nc(-c3ccc(CCNC(=O)OCc4ccccc4)cc3)cnc2N)CCO1 [Compound 28]
27 | 100 to 1000 | > 1000 | NCC1CN(c2ccncc2NC(=O)c2nc(-c3ccc(CCNC(=O)OCc4ccccc4)cc3)cnc2N)CCO1 (stereo not drawn) [Compound 30]
28 | > 1000 | > 1000 | N#Cc1ccccc1-c1ccncc1NC(=O)c1nc(-c2ccc(CCNC(=O)OCc3ccccc3)cc2)cnc1N [Compound 31]
29 | 100 to 1000 | > 1000 | Nc1ncc(-c2ccc(CCNC(=O)OCc3ccccc3)cc2)nc1C(=O)Nc1cnccc1-c1ccc(O)cc1 [Compound 34]
30 | 100 to 1000 | 100 to 1000 | Nc1ncc(-c2ccc(CCNC(=O)OCc3ccccc3)cc2)nc1C(=O)Nc1cnccc1N1CCOCC1=O [Compound 35]
31 | 100 to 1000 | 50 to 100 | Nc1ncc(-c2ccc(CCNC(=O)OCc3ccccc3)cc2)nc1C(=O)Nc1cnccc1N1CCSCC1 [Compound 36]
32 | > 1000 | > 1000 | NCC1COCCN1c1ccncc1NC(=O)c1nc(-c2ccc(CCNC(=O)OCc3ccccc3)cc2)cnc1N (stereo not drawn) [Compound 37]
33 | < 50 | > 1000 | Nc1cc(-c2ccncc2NC(=O)c2nc(-c3ccc(CCNC(=O)OCc4ccccc4)cc3)cnc2N)ccn1 [Compound 40]
34 | 100 to 1000 | 100 to 1000 | NCC1CN(c2ccncc2NC(=O)c2nc(-c3ccc(CCNC(=O)OCc4ccccc4)cc3)cnc2N)CCO1 (stereo not drawn) [Compound 41]
35 | < 50 | > 1000 | Nc1ncc(-c2ccc(CCNC(=O)OCc3ccccc3)cc2)nc1C(=O)Nc1cnccc1-c1ccnnc1 [Compound 48]
36 | > 1000 | > 1000 | Nc1ncc(-c2ccc(CCNC(=O)OCc3ccccc3)cc2)nc1C(=O)Nc1cnccc1-c1ccncn1 [Compound 49]
37 | < 50 | 50 to 100 | CC(=O)CCC(=O)NCCc1ccc(-c2cnc(N)c(C(=O)Nc3cnccc3N3CCOCC3)n2)cc1 [Compound 51]
38 | > 1000 | 100 to 1000 | Nc1ncc(-c2ccc(CCNC(=O)OCc3ccccc3)cc2)nc1C(=O)Nc1cnccc1N1CCS(=O)(=O)CC1 [Compound 52]
39 | > 1000 | > 1000 | COC1CCN(c2ccncc2NC(=O)c2nc(-c3ccc(CCNC(=O)OCc4ccccc4)cc3)cnc2N)C1 (stereo not drawn) [Compound 53]
40 | < 50 | 50 to 100 | Nc1ncc(-c2ccc(CCNC(=O)CCC(=O)c3ccccc3)cc2)nc1C(=O)Nc1cnccc1N1CCOCC1 [Compound 54]
41 | < 50 | < 50 | NCCc1ccc(-c2cnc(N)c(C(=O)Nc3cnccc3N3CCOCC3)n2)c(F)c1 [Compound 55]
42 | 100 to 1000 | 50 to 100 | Nc1ncc(-c2ccc(S(=O)(=O)N3CCNCC3)cc2)nc1C(=O)Nc1cnccc1N1CCOCC1 [Compound 62]
43 | < 50 | 50 to 100 | NCCOc1ccc(-c2cnc(N)c(C(=O)Nc3cnccc3N3CCOCC3)n2)cc1 [Compound 64]
44 | < 50 | 100 to 1000 | NCCCOc1ccc(-c2cnc(N)c(C(=O)Nc3cnccc3N3CCOCC3)n2)cc1 [Compound 65]
45 | 100 to 1000 | > 1000 | NCCCc1ccc(-c2cnc(N)c(C(=O)Nc3cc(F)ccc3N3CCOCC3)n2)cc1 [Compound 66]
46 | 50 to 100 | 50 to 100 | Nc1ncc(-c2ccc3c(c2)CNCC3)nc1C(=O)Nc1cnccc1N1CCOCC1 [Compound 67]
47 | > 1000 | > 1000 | NCCCc1ccc(-c2cnc(N)c(C(=O)Nc3cnccc3N3CCOCC3)c2)cc1 [Compound 69]
48 | < 50 | 50 to 100 | Nc1ncc(-c2ccc(N3CCNCC3)cc2)nc1C(=O)Nc1cnccc1N1CCOCC1 [Compound 70]
49 | < 50 | 100 to 1000 | CC(C)(C)OC(=O)N1CCN(c2ccc(-c3cnc(N)c(C(=O)Nc4cnccc4N4CCOCC4)n3)cc2)CC1 [Compound 71]
50 | 50 to 100 | 100 to 1000 | Nc1ncc(-c2ccc(CCNC(=O)OCc3ccccc3)cc2)nc1C(=O)Nc1cnccc1CN1CCCC1 [Compound 72]
51 | < 50 | 100 to 1000 | Nc1ncc(-c2ccc(C(=O)NCCNC(=O)OCc3ccccc3)cc2)nc1C(=O)Nc1cnccc1N1CCOCC1 [Compound 76]
52 | < 50 | < 50 | CC(C)(C)OC(=O)N1CCc2cc(-c3cnc(N)c(C(=O)Nc4cnccc4N4CCOCC4)n3)ccc2C1 [Compound 78]
53 | 100 to 1000 | 100 to 1000 | Nc1ncc(-c2ccc(N3CCNCC3=O)cc2)nc1C(=O)Nc1cnccc1N1CCOCC1 [Compound 84]
54 | < 50 | < 50 | CC(C)(C)OC(=O)N1CCN(Cc2ccc(-c3cnc(N)c(C(=O)Nc4cnccc4N4CCOCC4)n3)cc2)C(=O)C1 [Compound 85]
